For two molecules, Km results are on record in ChEMBL document CHEMBL2074523, “Hepatic uptake of cholecystokinin octapeptide by organic anion-transporting polypeptides OATP4 and OATP8 of rat and human liver” (Gastroenterology, 2001).

Series [1] addresses T1, Solute carrier organic anion transporter family member 1B3 (OATP1B3) (Homo sapiens, UniProt Q9NPD5).
T1 sequence (Q9NPD5 whole entry): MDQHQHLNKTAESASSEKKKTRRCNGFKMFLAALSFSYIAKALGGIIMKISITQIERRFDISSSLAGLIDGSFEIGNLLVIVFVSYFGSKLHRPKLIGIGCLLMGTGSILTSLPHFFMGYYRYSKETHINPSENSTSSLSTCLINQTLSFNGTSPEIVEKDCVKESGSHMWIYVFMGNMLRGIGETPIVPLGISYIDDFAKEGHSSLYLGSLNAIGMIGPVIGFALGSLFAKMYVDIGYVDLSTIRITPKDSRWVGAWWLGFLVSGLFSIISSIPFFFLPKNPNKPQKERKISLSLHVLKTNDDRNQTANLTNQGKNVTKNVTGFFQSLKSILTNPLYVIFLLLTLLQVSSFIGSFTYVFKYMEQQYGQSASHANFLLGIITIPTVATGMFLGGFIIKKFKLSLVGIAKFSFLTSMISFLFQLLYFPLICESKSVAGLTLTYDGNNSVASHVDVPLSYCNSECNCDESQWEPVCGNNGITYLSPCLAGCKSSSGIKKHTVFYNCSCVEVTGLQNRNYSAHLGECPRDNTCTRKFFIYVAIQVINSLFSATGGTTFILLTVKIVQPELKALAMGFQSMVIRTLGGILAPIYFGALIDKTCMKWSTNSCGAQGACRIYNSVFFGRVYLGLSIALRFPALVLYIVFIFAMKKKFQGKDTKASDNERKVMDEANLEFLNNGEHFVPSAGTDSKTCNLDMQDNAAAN
Briefly: (§1) TP_TRANSPORTER: uptake in Xenopus laevis oocytes. The following applies: Xenopus laevis oocytes expressing OATP1B3 (SLCO1B3).

Substrate in series [2]: CSCC[C@H](NC(=O)[C@H](Cc1ccc(OS(=O)(=O)O)cc1)NC(=O)[C@@H](N)CC(=O)O)C(=O)NCC(=O)N[C@@H](Cc1c[nH]c2ccccc12)C(=O)N[C@@H](CCSC)C(=O)N[C@@H](CC(=O)O)C(=O)N[C@@H](Cc1ccccc1)C(N)=O
Described as §1. The series is classed as functional, cell-based, Oocyte.

On to `CSCC[C@H](NC(=O)[C@H](Cc1ccc(OS(=O)(=O)O)cc1)NC(=O)[C@@H](N)CC(=O)O)C(=O)NCC(=O)N[C@@H](Cc1c[nH]c2ccccc12)C(=O)N[C@@H](CCSC)C(=O)N[C@@H](CC(=O)O)C(=O)N[C@@H](Cc1ccccc1)C(N)=O` [SINCALIDE], for which the Km in series [1] came to 11.1 µM.

B1: Solute carrier organic anion transporter family member 1B2 (Rattus norvegicus) (protein)
chain: MDHTQQSRKAAEAQPSRSKQTRFCDGFKLFLAALSFSYICKALGGVVMKSSITQIERRFDIPSSISGLIDGGFEIGNLLVIVFVSYFGSKLHRPKLIGIGCFIMGIGSILTALPHFFMGYYKYAKENDIGSLGNSTLTCFINQMTSPTGPSPEIVEKGCEKGLKSHMWIYVLMGNMLRGIGETPIVPLGISYLDDFAKEGHTSMHLGTLHTIAMIGPILGFIMSSVFAKIYVDVGYVDLNSVRITPNDARWVGAWWLSFIVNGLLCITSSIPFFFLPKIPKRSQEERKNSVSLHAPKTDEEKKHMTNLTKQEEQDPSNMTGFLRSLRSILTNEIYVIFLILTLLQVSGFIGSFTYLFKFIEQQFGRTASQANFLLGIITIPTMATAMFLGGYIVKKFKLTSVGIAKFVFFTSSVAYAFQFLYFPLLCENKPFAGLTLTYDGMNPVDSHIDVPLSYCNSDCSCDKNQWEPICGENGVTYISPCLAGCKSFRGDKKPNNTEFYDCSCISNSGNNSAHLGECPRYKCKTNYYFYIILQVTVSFFTAMGSPSLILILMKSVQPELKSLAMGFHSLIIRALGGILAPIYYGAFIDRTCIKWSVTSCGKRGACRLYNSRLFGFSYLGLNLALKTPPLFLYVVLIYFTKRKYKRNDNKTLENGRQFTDEGNPDSVNKNGYYCVPYDEQSNETPL
As to B1, the Km in series [2] came out at 14.9 µM.
